This is an account of results in patent publication US7087790B2, “Benzotropolone derivatives and modulation of inflammatory response” (Rutgers, The State University of New Jersey, priority 2003, dated 2006).

“And” between values parts separate entries of the source, which are not always exact repeats. Equal entries are not always repeated.

Assay [1] can be described thus: Oxygen radical absorbance capacity (ORAC) assay with fluorescein probe and AAPH. Conditions: Trolox equivalents; 0.5 μM; 75 mM phosphate buffer pH 5.5; mean ± SD, n = 4 (a: n = 3). The source says:
In another aspect, the present invention also discloses antioxidant activities of the compositions having benzotropolone containing compounds disclosed herein. Oxygen radical absorbence capacity (ORAC) assay, which is a measure of free radical scavenging ability, is simple and sensitive method to measure the oxygen-radical absorbing capacity. It has been widely used for measuring the antioxidant activity of food and nutraceutical components. ORAC assay was developed by Cao et al., 1993, Free Radical Biol. Med. 14:303–311. In the assay, β-phycoerythrin (β-PE) was used as fluorescent indicator protein and 2,2′-Azobis(2-amidinopropane) dihydrochloride (AAPH) used as a peroxy radical generator. β-PE is a photosynthetic protein found in red algae. β-PE has been used as fluorescent probe because of its distinct excitation and emission wavelength (Ex. 540 nm, Em. 565 nm). The use of β-PE as a fluorescent probe, however, has certain defects. When reactive oxygen species attack the β-PE, it can easily lose the fluorescence. Furthermore, the ORAC value can be affected by possible interaction between polyphenols and proteins. Recently, Ou et al., 2001, J. Agric. Food Chem. 49:4619–4626 reported an improved ORAC method using fluorescein, instead of β-PE, as a fluorescent probe. Accordingly, fluorescein is used as a fluorescent probe in ORAC assays for testing the antioxidant activities of the compounds of the present invention.
Oxygen radical absorbance capacity (ORAC) assay was performed to examine antioxidant activity of individual theaflavins and epitheaflavic acids. All reagents were prepared in 75 mM phosphate buffer (pH 5.5). Reaction mixture consists of 3 mL of Fluorescein solution (8.16×10^−5 mM), 500 μL AAPH (153 mM), and 500 μL of sample solution or blank. Once AAPH was added, fluorescence was measured every 1 min using Hitachi Model F-3010 fluorescence spectrophotometer with emission and excitation wavelength of 515 and 493 nm, respectively. The ORAC value was calculated based on the area under the fluorescence decay curve of fluorescein in the presence of the test compound comparing to the area generated by standard Trolox and blank. The net area under the curve and ORAC values were calculated by the formula presented by Cao et al (Cao et al. 1993).
The relative ORAC value (Trolox equivalents) was calculated with following equation.
The area under curve (AUC) was calculated according to following equation. AUC=1+f1/f0+f2/f0+f3/f0+f4/f0 . . . +f119/f0+f120/f0 f0 is the initial fluorescence reading at 0 min, fi is the fluorescence reading at time i.
Quenching curves representing the peroxyl radical absorbing activity of Trolox in various concentration (0˜4 μM) was used as a standard (data not shown). The net area of quenching curve increased proportionally to an increment of the Trolox concentration. Quenching curves of theaflavins and EGCG were examined (data not shown). […] Quenching curves of epitheaflavic acids and EGCG were also examined. (data not shown).

The subject of assay [2] is TPA-induced Edema of Mouse Ear. Nature of the assay: TPA-induced ear edema assay (skin inflammation model). To be noted: 0.5 μmol topical in acetone 20 min before TPA (1 nmol); for Average weight of ear punches (mg) (Mean ± SE): 6 mm punches 5 h later; for Percent inhibition %: ear punch weight 5 h later. The format is in vivo, female CD-I mice. The source says:
In yet another aspect of the invention, the present invention is directed to a method of preventing and/or treating inflammation in an animal using compositions having benzotropolone containing compounds disclosed herein. […] The anti-inflammatory activity (or anti-edema) of benzotropolone containing compounds of the present invention can be tested using 12–0-tetradecanoylphorbol- 13-acetate (TPA) TPA-induced inflammatory skin edema assay. Application of TPA on skin results in induction of omithine decarboxylase activity that increases the polyamine level and epidermal hyperplasia, and inflammation, and pro-inflammatory cytokine (e.g., IL-1β) and prostaglandins (prostaglandin E2) production at the site. The benzotropolone containing compounds can be applied either prior to or subsequent to or simultaneously with the topical application of TPA to skin tissue (e.g. mice ear).
The TPA (12-O-tetradecanoylphorbol-13-acetate)-induced ear edema assay was carried out to examine anti-inflammatory activity of benzotropolone-containing compounds in skin inflammation model. The female CD-I mice (24-25 days old) were topically treated with 20 μl of acetone and benzotropolone-containing compounds in 20 μl of acetone at 20 minutes before topical application of 20 μl of acetone or TPA (1 nmol) in 20 μl of acetone. Then, five hours later, all mice were sacrificed by cervical dislocation. The ear punches (6 mm in diameter) were taken and weighed.

The next assay has as its system TPA-induced ear edema. To be noted: topical; cited from earlier work.

On to `O=C(O[C@@H]1Cc2c(O)cc(O)cc2O[C@@H]1c1cc(O)c(O)c(O)c1)c1cc(O)c(O)c(O)c1` [EGCG, (−)-epigallocatechin-3-gallate, reference compound], for which the “Relative ORAC value” in assay [1] is 7.69 ± 0.35. In assay [2], the “Average weight of ear punches (mg) (Mean ± SE)” value (“Average weight … (Mean ± SE)” below) stood at 8.79 ± 0.54 mg and the Percent inhibition % came to 68.3%.

As to `O=C(O)c1cc(O)c(=O)c2c(O)c(O)ccc2c1` [GACa], in assay [2], the “Average weight … (Mean ± SE)” value is 8.61 ± 0.54 mg and the Percent inhibition % was determined as 83.3%.

For `O=C(OC1Cc2c(O)cc(O)cc2OC1c1cc(O)c(=O)c2c(O)c(O)cc(C3Oc4cc(O)cc(O)c4CC3O)c2c1)c1cc(O)c(O)c(O)c1` (stereo not drawn) [Neotheaflavin 3-gallate], in assay [2], the “Average weight … (Mean ± SE)” value was 8.42 ± 0.42 mg and the Percent inhibition % is 88.4%.

As to `O=c1c(O)cc([C@H]2Oc3cc(O)cc(O)c3C[C@H]2O)cc2c([C@H]3Oc4cc(O)cc(O)c4C[C@@H]3O)cc(O)c(O)c12` [Neotheaflavin], in assay [2], the “Average weight … (Mean ± SE)” value stood at 10.58 ± 0.73 mg and the Percent inhibition % is 62.9%.

With `O=c1c(O)cccc2cc(O)c(O)c(O)c12` [Purprogallin, Purpurogallin], the “Relative ORAC value” in assay [1] is given as 6.01 ± 0.42.

Take `O=C(O)c1cc(O)c(=O)c2c(O)c(O)cc([C@H]3Oc4cc(O)cc(O)c4C[C@@H]3O)c2c1` [Theaflavic acid]: in assay [2], the “Average weight … (Mean ± SE)” value is 9.28 ± 0.37 mg and 8.95 ± 0.43 mg; the Percent inhibition % is 78.3% and 79.5%.

In the case of `O=C(O[C@@H]1Cc2c(O)cc(O)cc2O[C@@H]1c1cc(=O)c(O)c2c(O)c(O)cc([C@H]3Oc4cc(O)cc(O)c4C[C@H]3O)c2c1)c1cc(O)c(O)c(O)c1` [Theaflavin 3-gallate], in assay [1], the “Relative ORAC value” is recorded as 13.17 ± 0.18. Moreover, in assay [2], the “Average weight … (Mean ± SE)” value is given as 7.86 ± 0.24 mg and the Percent inhibition % amounted to 91.5%.

As for `O=c1c(O)cc([C@H]2Oc3cc(O)cc(O)c3C[C@H]2O)cc2c([C@H]3Oc4cc(O)cc(O)c4C[C@H]3O)cc(O)c(O)c12` [Theaflavin], the “Relative ORAC value” in assay [1] is reported as 11.60 ± 0.30. In assay [2], the “Average weight … (Mean ± SE)” value is 7.90 ± 0.42 mg and 8.23 ± 0.40 mg; the Percent inhibition % is 89.2% and 87.8%.

With “Epigallocatechinocatechol gallate [EGCGCa]”, in assay [2], the “Average weight … (Mean ± SE)” value amounted to 7.49 ± 0.12 mg and the Percent inhibition % is recorded as 96.3%.

As for Epitheaflavic acid, the “Relative ORAC value” in assay [1] is given as 9.74 ± 0.38. In assay [2], the “Average weight … (Mean ± SE)” value is 9.39 ± 0.43 mg and the Percent inhibition % is 74.4%.

Consider Neotheaflavate A, for which, in assay [2], the “Average weight … (Mean ± SE)” value came to 8.65 ± 0.64 mg and the Percent inhibition % stood at 85.7%.

In the case of Theaflavate A, in assay [2], the “Average weight … (Mean ± SE)” value was found to be 8.52 ± 0.26 mg and the Percent inhibition % worked out at 87.2%.

For the compound Theaflavate B, in assay [2], the “Average weight … (Mean ± SE)” value worked out at 8.35 ± 0.32 mg and the Percent inhibition % turned out to be 89.2%.

Regarding “Theaflavin 3,3′-digallate [Theaflavin 3,3′-gallate]”, the “Relative ORAC value” in assay [1] is on record as 13.54 ± 0.69. In addition, in assay [2], the “Average weight … (Mean ± SE)” value is given as 7.03 ± 0.18 mg and the Percent inhibition % worked out at 100.0%. For the same compound, the “anti-inflammatory activity (rank order, Liang et al.)” value with TPA-induced ear edema is given as “stronger than TF-2”.

Consider Theaflavin 3′-gallate, for which the “Relative ORAC value” in assay [1] stood at 12.40 ± 0.58. In assay [2], the “Average weight … (Mean ± SE)” value is given as 7.44 ± 0.18 mg and the Percent inhibition % was 100.0%.
